Results taken from patent publication US10441681B2, “Materials and methods for nerve grafting” (University of Florida Research Foundation, Inc., priority 2001, dated 2019).

Experiments:
[1] = test system: CSPG; assay: CSPG neoepitope (Ab1918) immunolabeling of acellular rat sciatic nerve segments treated en bloc; conditions: acellular rat sciatic nerve segments bathed en bloc in chondroitinase ABC solution for 16 hours
Source text: Adult (180-200 g) female SPRAGUE DAWLEY rats (HARLAN, Indianapolis, Ind.) were used as nerve donors and recipient hosts. Donor rats were anesthetized with halothane and decapitated. Sciatic nerves were exposed through a gluteal muscle-splitting incision and isolated free of underlying fascia. A 15-mm nerve segment was excised rostral to the bifurcation into common peroneal and tibial nerves. The segments were rinsed with cold sterile Ringer's solution, stabilized by pinning the ends to a thin plastic support, and transferred to a cryogenic vial. The vials were submerged in liquid nitrogen for 2 minutes and then transferred to a 37° C. water bath for 2 minutes. This freeze/thaw cycle was repeated, yielding acellular nerve grafts that were then stored in liquid nitrogen. On the day before grafting, the nerve grafts were warmed to room temperature and incubated in 100 μl phosphate buffered saline pH 7.4 (PBS) containing 2 units/ml chondroitinase ABC (SIGMA, St. Louis, Mo.) or in PBS (vehicle) only for 16 hours at 37° C. The grafts were rinsed twice with Ringer's and kept on ice prior to use. The chondroitinase ABC preparation was highly purified and stated by the manufacturer to be essentially free of protease activity.
Axonal regeneration was assessed by GAP-43 immunofluorescence and digital image analysis. […]

[2] = test system: embryonic chick DRG neurons; assay: Cryoculture bioassay (neurite outgrowth) on sections of acellular rat nerve segments; type: cell-based
Experimental: Cryoculture is a neurite outgrowth assay in which neurons are cultured directly on fresh/frozen nerve sections and was performed as described previously (Ferguson T A et al. [2000] Mol Cell Neurosci, 16:157-167). Briefly, chondroitinase- and vehicle-treated nerve segments were sectioned at 20 μm, mounted on sterile, aminopropyltriethoxysilane (APTS)-coated coverslips and stored at −20° C. until used. Where indicated, sections were treated with chondroitinase ABC (0.1 unit/ml) or vehicle (50 mM Tris-HCl, pH 8.0), containing 50 mM NaCl) for 2 h at 37° C. Purified dorsal root ganglionic (DRG) neurons from day 8 chick embryos were seeded directly on the nerve sections in a defined N2 medium (Bottenstein J E et al. [1980] Exp Cell Res 125:183-190) containing 10 ng/ml nerve growth factor. Cryoculture assays were terminated after 24 h of incubation by fixation with 100% methanol. Neuritic growth by DRG neurons was accessed by GAP-43 immunofluorescent labeling. Epifluorescent photomicrographs were acquired as described for tissue sections. Neurite lengths were measured directly using IMAGE-PRO PLUS software (MEDIA CYBERNETICS, Silver Springs, Md.). At least 250 neurons with neurites greater than one cell body (˜15 μm) were scored for each condition in each experiment.
Inactivation of inhibitory CSPG in chondroitinase-treated acellular nerve was determined by cryoculture bioassay. Embryonic chick DRG neurons were seeded onto sections of prepared nerve segments and the neurite-promoting activity was assessed by scoring neurite growth. On sections of acellular nerve pretreated en bloc with vehicle only the average neurite length was 49 μm. Neurite growth on acellular nerve pretreated en bloc with chondroitinase averaged 96 μm, representing a 95% increase compared to the control condition. To determine if the en bloc chondroitinase treatment was thorough, cryoculture assays were performed on nerve tissues treated with chondroitinase after sectioning (post-treatment).

chondroitinase ABC
CSPG degradation (Ab1918 neoepitope immunostaining) [1]: thoroughly degraded CSPG side-chains
increase in neurite growth compared to the control condition ([2]; acellular nerve pretreated en bloc vs en bloc vehicle): 95%
average neurite length ([2]; acellular nerve pretreated en bloc, DRG neurons grown 24 h): 96 μm
increase in neurite-promoting activity by post-treatment of sections ([2]; acellular nerve treated en bloc with vehicle only, sections post-treated with chondroitinase): 86%
effect of post-treatment on sections from en bloc chondroitinase-treated nerve grafts ([2]; post-treatment after sectioning): only a slight additive effect
